Read-outs that look alike come from different tables or passages of the source.
How the values were obtained:
Format in all cases: biochemical
[1] = target: TACE (Homo sapiens, UniProt P78536); assay: TACE inhibition (fluorescent peptidyl substrate)
[2] = target: T1, MMP-1 (Homo sapiens, UniProt P03956); assay: MMP-1 inhibition (thiopeptide or fluorescent peptide substrate assay); settings: for inhibition at 1 µM: read-out: MMP-1 % inhibition, footnote: 1µM; for IC50: read-out: MMP-1 IC50
T1 sequence (P03956 100-469): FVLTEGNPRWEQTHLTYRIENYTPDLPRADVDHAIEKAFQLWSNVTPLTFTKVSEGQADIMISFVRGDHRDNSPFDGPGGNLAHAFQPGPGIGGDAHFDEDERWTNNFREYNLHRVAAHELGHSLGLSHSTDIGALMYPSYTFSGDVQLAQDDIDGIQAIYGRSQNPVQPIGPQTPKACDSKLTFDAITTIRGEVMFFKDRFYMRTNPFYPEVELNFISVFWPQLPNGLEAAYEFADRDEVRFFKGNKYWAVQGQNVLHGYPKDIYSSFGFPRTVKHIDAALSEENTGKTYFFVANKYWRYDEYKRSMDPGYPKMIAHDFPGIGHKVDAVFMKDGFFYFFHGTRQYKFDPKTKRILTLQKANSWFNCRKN

[3] = target: MMP-13 (Homo sapiens, UniProt P45452); assay: MMP-13 inhibition (thiopeptide or fluorescent peptide substrate assay); settings: for inhibition at 1 µM: read-out: MMP-13 % inhibition, footnote: 1µM
[4] = target: MMP-9 (Homo sapiens, UniProt P14780); assay: MMP-9 inhibition (thiopeptide or fluorescent peptide substrate assay); settings: for inhibition at 1 µM: read-out: MMP-9 % inhibition, footnote: 1µM; for IC50: read-out: MMP-9 IC50
MMP-9, sequence (P14780 94-707): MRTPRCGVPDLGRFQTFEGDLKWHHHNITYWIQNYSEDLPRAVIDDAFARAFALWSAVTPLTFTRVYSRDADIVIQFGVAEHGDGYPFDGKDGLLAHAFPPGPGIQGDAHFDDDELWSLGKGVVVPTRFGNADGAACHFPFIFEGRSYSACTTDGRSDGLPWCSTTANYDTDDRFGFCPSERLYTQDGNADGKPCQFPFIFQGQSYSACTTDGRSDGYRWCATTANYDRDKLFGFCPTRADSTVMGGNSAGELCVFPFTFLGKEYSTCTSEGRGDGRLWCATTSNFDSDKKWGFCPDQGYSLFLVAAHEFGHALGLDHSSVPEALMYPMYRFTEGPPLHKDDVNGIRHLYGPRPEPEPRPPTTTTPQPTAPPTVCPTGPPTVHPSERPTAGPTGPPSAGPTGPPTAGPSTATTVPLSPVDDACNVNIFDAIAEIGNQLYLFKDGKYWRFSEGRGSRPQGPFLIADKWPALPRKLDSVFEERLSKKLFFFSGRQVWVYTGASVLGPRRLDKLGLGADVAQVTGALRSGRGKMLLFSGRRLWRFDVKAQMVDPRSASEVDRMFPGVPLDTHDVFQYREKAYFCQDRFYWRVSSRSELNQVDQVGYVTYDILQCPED

TACE, sequence (P78536 215-824): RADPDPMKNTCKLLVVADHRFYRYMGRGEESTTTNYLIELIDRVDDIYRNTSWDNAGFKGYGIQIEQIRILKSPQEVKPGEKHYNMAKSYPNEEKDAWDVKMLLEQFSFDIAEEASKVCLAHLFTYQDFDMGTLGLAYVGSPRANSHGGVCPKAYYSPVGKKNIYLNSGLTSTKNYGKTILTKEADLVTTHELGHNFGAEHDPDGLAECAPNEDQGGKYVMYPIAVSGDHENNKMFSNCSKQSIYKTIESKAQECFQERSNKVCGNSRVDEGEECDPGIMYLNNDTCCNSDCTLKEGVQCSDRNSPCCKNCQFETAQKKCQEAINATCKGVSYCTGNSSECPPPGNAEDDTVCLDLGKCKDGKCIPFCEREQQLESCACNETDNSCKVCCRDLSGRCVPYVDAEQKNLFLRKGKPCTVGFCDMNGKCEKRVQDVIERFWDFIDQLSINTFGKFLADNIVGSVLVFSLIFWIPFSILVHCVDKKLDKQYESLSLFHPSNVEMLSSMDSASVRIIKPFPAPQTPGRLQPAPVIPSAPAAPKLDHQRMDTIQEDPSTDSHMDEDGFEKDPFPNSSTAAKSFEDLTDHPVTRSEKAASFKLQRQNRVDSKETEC

| Compound | IC50 ([1]; read-out: TACE IC50) [nM] | inhibition at 1 µM [2] [%] | inhibition at 1 µM [3] [%] | inhibition at 1 µM [4] [%] | IC50 [1] [nM] | IC50 [2] [nM] | IC50 [3] [nM] | IC50 [4] [nM] | IC50 ([3]; read-out: MMP-13 IC50) [nM] | inhibition at 1 µM ([1]; at 1µM concentration) [%] |
| --- | --- | --- | --- | --- | --- | --- | --- | --- | --- | --- |
| Cc1cc(Br)cc(C(=O)NO)c1N(Cc1ccccc1)S(=O)(=O)c1ccc(OCc2ccccc2)cc1 [Example 308] | 285 | 10 | 36 | 45 |  |  |  |  |  |  |
| COc1ccc(S(=O)(=O)N(C)c2c(CN3CCOCC3)cccc2C(=O)NO)cc1 [Example 309, N-Hydroxy-2-[(4-methoxy-benzenesulfonyl)-methyl-amino]-3-morpholin-4-ylmethyl-benzamide] |  |  |  |  | 174 | 608 | 14 | 5 |  |  |
| COc1ccc(S(=O)(=O)N(C)c2c(CN3CCCC3)cccc2C(=O)NO)cc1 [Example 310, N-Hydroxy-2-[(4-methoxy-benzenesulfonyl)-methyl-amino]-3-pyrrolidin-1-ylmethyl-benzamide] | 154 |  |  |  |  | 4800 |  | 21 | 101 |  |
| COc1ccc(S(=O)(=O)N(C)c2c(Cn3ccnc3)cccc2C(=O)NO)cc1 [Example 311, N-Hydroxy-3-imidazol-1-ylmethyl-2-[(4-methoxy-benzenesulfonyl)-methyl-amino]-benzamide] |  |  |  |  | 157 | 781 | 43 | 10 |  |  |
| COc1ccc(S(=O)(=O)N(C)c2c(CN3CCCC3)cc(Br)cc2C(=O)NO)cc1 [Example 314, 5-Bromo-N-hydroxy-2-[(4-methoxy-benzenesulfonyl)-methylamino]-3-pyrrolidin-1-ylmethyl-benzamide] | 27 |  |  |  |  | 954 |  | 8.4 | 13 |  |
| CCCCCCCCN(c1c(CN2CCN(C)CC2)cccc1C(=O)NO)S(=O)(=O)c1ccc(OC)cc1 [Example 325, N-Hydroxy-2-[(4-methoxy-benzenesulfonyl)-octyl-amino]-3-(4-methyl-piperazin-1-ylmethyl)-benzamide] | 1640 | 15 | 60 | 49 |  |  |  | 2.4 | 1.9 | 47 |
| COc1ccc(S(=O)(=O)N(Cc2ccsc2)c2c(CN3CCN(C)CC3)cccc2C(=O)NO)cc1 [Example 328, N-Hydroxy-2-[(4-methoxy-benzenesulfonyl)-thiophen-3-ylmethyl-amino]-3-(4-methyl-piperazin-1-ylmethyl)-benzamide] | 263 |  |  |  |  | 326 |  | 4.9 | 13 |  |

The remaining lines, values ahead:

| IC50 ([1]; read-out: TACE IC50) [nM] | inhibition at 1 µM [2] [%] | inhibition at 1 µM [3] [%] | inhibition at 1 µM [4] [%] | IC50 [1] [nM] | IC50 [2] [nM] | IC50 [3] [nM] | IC50 [4] [nM] | IC50 ([3]; read-out: MMP-13 IC50) [nM] | inhibition at 1 µM ([1]; at 1µM concentration) [%] | Compound |
| --- | --- | --- | --- | --- | --- | --- | --- | --- | --- | --- |
| 142 |  |  |  |  | 2190 |  | 46 | 150 |  | COc1ccc(S(=O)(=O)N(Cc2cccnc2)c2c(CN3CCCC3)cccc2C(=O)NO)cc1 [Example 320, N-Hydroxy-2-[(4-methoxy-benzenesulfonyl)-pyridin-3-ylmethyl-amino]-3-pyrrolidin-1-ylmethyl-benzamide] |
| 173 |  |  |  |  | 319 |  | 6.1 | 23 |  | COc1ccc(S(=O)(=O)N(Cc2ccccc2)c2c(CN3CCN(C)CC3)cccc2C(=O)NO)cc1 [Example 329, N-Hydroxy-2-[[(4-methoxyphenyl)sulfonyl](phenylmethyl)-amino]-3-[(4-methyl-1-piperazinyl)methyl]benzamide] |
| 564 |  |  |  |  | 216 |  | 5.2 | 5.7 |  | COc1ccc(S(=O)(=O)N(Cc2cccnc2)c2c(COC3CCCCO3)cccc2C(=O)NO)cc1 (centres unmarked) [Example 339, N-Hydroxy-2-[(4-methoxy-benzenesulfonyl)-pyridin-3-ylmethyl-amino]-3-(tetrahydro-pyran-2-yloxymethyl)-benzamide] |
| 110 |  |  |  |  | 522 |  | 11 | 30 |  | COc1ccc(S(=O)(=O)N(Cc2cccnc2)c2c(CO)cccc2C(=O)NO)cc1 [Example 340, N-Hydroxy-3-hydroxymethyl-2-[(4-methoxy-benzenesulfonyl)-pyridin-3-ylmethyl-amino]-benzamide] |
